Like-named read-outs stand apart in the source and are kept apart here.
Legend:
[1] = test system: PC3 cells; experiment: PC3 growth inhibition (Cell-titer glo, 72 hours); format: cell-based; conditions: Homo sapiens, PC-3, PC3 cells, 72 hours, Cell-titer glo, read-out: Percent Inhibition (PC3 growth inhibition); for inhibition at 1 µM: compound concentration 1 μM; for inhibition at 1.667 µM: compound concentration 1.667 μM
Outline: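 PC3 cells in RPMI1640 seeded overnight at 37 °C, 5% CO2, then exposed to compound diluted in AIM serum-free medium for 72 h. Viability by CellTiter-Glo luminescence vs DMSO controls; single-concentration % remaining viability (1 μM or 1.667 μM), or GI50/LD50 from curves.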

[2] = target: hNAMPT protein (Homo sapiens (Human), UniProt P43490); experiment: NAMPT enzyme assay (TR-FRET/HTRF, BodiPY ligand, anti 6His-Tb); format: binding; conditions: for IC50: NAMPT IC50 range class, read-out: IC50; for inhibition at 1 µM: read-out: Percent Inhibition
Outline: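 TR-FRET binding assay in which His-tagged human NAMPT with anti-6His-Tb is displaced by compound from a BodiPY ligand, incubated 1 h at rt in the dark. Excitation was at 320 nm, with the 520/486 nm emission ratio read. IC50 was fitted from inhibition relative to DMSO controls.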

hNAMPT protein, sequence (P43490 whole entry): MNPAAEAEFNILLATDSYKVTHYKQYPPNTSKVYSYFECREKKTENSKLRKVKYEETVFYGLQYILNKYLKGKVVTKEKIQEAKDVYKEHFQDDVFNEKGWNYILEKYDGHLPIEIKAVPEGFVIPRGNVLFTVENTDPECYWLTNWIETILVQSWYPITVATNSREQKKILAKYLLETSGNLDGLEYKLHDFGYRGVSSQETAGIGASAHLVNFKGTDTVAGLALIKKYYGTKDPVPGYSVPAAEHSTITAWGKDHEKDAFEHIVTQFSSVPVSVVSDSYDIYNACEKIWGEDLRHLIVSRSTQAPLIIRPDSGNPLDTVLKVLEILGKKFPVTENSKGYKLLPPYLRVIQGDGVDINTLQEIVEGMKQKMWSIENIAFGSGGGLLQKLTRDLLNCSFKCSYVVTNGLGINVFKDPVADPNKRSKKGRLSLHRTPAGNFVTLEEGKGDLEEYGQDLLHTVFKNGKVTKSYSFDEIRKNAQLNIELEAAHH

| Compound | inhibition at 1 µM [1] [%] | IC50 [2] [nM] | inhibition at 1 µM ([2]; compound concentration 1 μM) [%] | inhibition at 1.667 µM [1] [%] | inhibition at 1 µM [2] [%] |
| --- | --- | --- | --- | --- | --- |
| O=C(NCCCc1c[nH]cn1)c1ccc2nc(-c3ccc(F)cc3)c(-c3ccc(F)cc3)nc2c1 [Compound I-192, 2,3-bis(4-fluorophenyl)-N-[3-(1H-imidazol-4-yl)propyl]quinoxaline-6-carboxamide] | -7 | 100 to 500 | 78 | – | – |
| O=C(NCCCc1cncnc1)c1ccc2nc(N3CCOCC3)c(-c3ccc(F)cc3)nc2c1 [Compound I-193, 3-(4-Fluorophenyl)-2-(morpholin-4-yl)-N-[3-(pyrimidin-5-yl)propyl]quinoxaline-6-carboxamide] | – | 100 to 500 | – | > 99 | 73 |
| Cn1cccc1-c1nc2cc(C(=O)NCCCn3ccnc3)ccc2nc1-c1ccccc1 [Compound I-194, N-[3-(1H-imidazol-1-yl)propyl]-3-(1-methyl-1H-pyrrol-2-yl)-2-phenylquinoxaline-6-carboxamide] | 29 | 2000 to 10000 | 30 | – | – |
| O=C(NCCCc1ncc[nH]1)c1ccc2nc(N3CCCCC3)c(-c3cccs3)nc2c1 [Compound I-195, N-[3-(1H-imidazol-2-yl)propyl]-2-(piperidin-1-yl)-3-(2-thienyl)quinoxaline-6-carboxamide] | – | < 100 | > 99 | 2 | – |
| COc1cccc(-c2nc3cc(C(=O)NCCc4cccnc4)ccc3nc2N2CCCCC2)c1 [Compound I-196, 3-(3-methoxyphenyl)-2-(piperidin-1-yl)-N-[2-(pyridin-3-yl)ethyl]quinoxaline-6-carboxamide] | – | < 100 | 98 | 2 | – |
| COc1cccc(-c2nc3cc(C(=O)NCCCc4cccnc4)ccc3nc2N2CCCCC2)c1 [Compound I-197, 3-(3-methoxyphenyl)-2-(piperidin-1-yl)-N-[3-(pyridin-3-yl)propyl]quinoxaline-6-carboxamide] | – | < 100 | > 99 | 2 | – |
| O=C(NCCCc1ncc[nH]1)c1ccc2nc(N3CCCCC3)c(-c3ccc(Cl)cc3)nc2c1 [Compound I-198, 3-(4-chlorophenyl)-N-[3-(1H-imidazol-2-yl)propyl]-2-(piperidin-1-yl)quinoxaline-6-carboxamide] | – | < 100 | > 99 | 3 | – |
| O=C(NCCCn1ccnc1)c1ccc2nc(N3CCC(N4CCOCC4)CC3)c(-c3ccccc3)nc2c1 [Compound I-199, N-[3-(1H-imidazol-1-yl)propyl]-2-[4-(morpholin-4-yl)piperidin-1-yl]-3-phenylquinoxaline-6-carboxamide] | 0 | < 100 | 101 | – | – |
| Cn1cc2c(n1)CN(c1nc3ccc(C(=O)NCCCn4ccnc4)cc3nc1-c1ccccc1)CC2 [Compound I-200, N-[3-(1H-imidazol-1-yl)propyl]-2-(2-methyl-2,4,5,7-tetrahydro-6H-pyrazolo[3,4-c]pyridin-6-yl)-3-phenylquinoxaline-6-carboxamide] | -7 | 100 to 500 | 85 | – | – |
| O=C(NCCCn1ccnc1)c1ccc2nc(-c3cccnc3)c(-c3ccccc3)nc2c1 [Compound I-201, N-[3-(1H-imidazol-1-yl)propyl]-3-phenyl-2-(pyridin-3-yl)quinoxaline-6-carboxamide] | -7 | 500 to 1000 | 62 | – | – |
| O=C(NCCCc1ncc[nH]1)c1ccc2nc(C3=CCC(O)CC3)c(-c3cccs3)nc2c1 (stereo not drawn) [Compound I-202, 2-(4-Hydroxycyclohex-1-en-1-yl)-N-[3-(1H-imidazol-2-yl)propyl]-3-(2-thienyl)quinoxaline-6-carboxamide] | – | < 100 | > 99 | 2 | – |
| Cn1ccc(-c2nc3ccc(C(=O)NCCCn4ccnc4)cc3nc2-c2ccccc2)n1 [Compound I-203, N-[3-(1H-imidazol-1-yl)propyl]-2-(1-methyl-1H-pyrazol-3-yl)-3-phenylquinoxaline-6-carboxamide] | -8 | 1000 to 2000 | 37 | – | – |
| O=C(NCc1cn2cccnc2n1)c1ccc2nc(N3CCC(N4CCOCC4)CC3)c(-c3ccc(F)cc3)nc2c1 [Compound I-204, 3-(4-fluorophenyl)-N-(imidazo[1,2-a]pyrimidin-2-ylmethyl)-2-[4-(morpholin-4-yl)piperidin-1-yl]quinoxaline-6-carboxamide] | – | < 100 | > 99 | 63 | – |
| CCOC(=O)CCc1ccc(-c2nc3ccc(C(=O)NCCCn4ccnc4)cc3nc2-c2ccccc2)cc1 [Compound I-205, ethyl 3-[4-(6-{[3-(1H-imidazol-1-yl)propyl]carbamoyl}-3-phenylquinoxalin-2-yl)phenyl]propanoate] | 104 | 100 to 500 | 84 | – | – |
| O=C(NCCCn1ccnc1)c1ccc2nc(N3CCCC3)c(-c3ccccc3)nc2c1 [Compound I-206, N-[3-(1H-imidazol-1-yl)propyl]-3-phenyl-2-(pyrrolidin-1-yl)quinoxaline-6-carboxamide] | -7 | 100 to 500 | 75 | – | – |
| CCN(CC)c1nc2ccc(C(=O)NCCCn3ccnc3)cc2nc1-c1ccccc1 [Compound I-207, 2-(diethylamino)-N-[3-(1H-imidazol-1-yl)propyl]-3-phenylquinoxaline-6-carboxamide] | -7 | 100 to 500 | 69 | – | – |
| O=C(NCCCn1ccnc1)c1ccc2nc(-c3ccc4cc[nH]c4c3)c(-c3ccccc3)nc2c1 [Compound I-208, N-[3-(1H-imidazol-1-yl)propyl]-2-(1H-indol-6-yl)-3-phenylquinoxaline-6-carboxamide] | -6 | 500 to 1000 | 55 | – | – |
| O=C(NCCCn1ccnc1)c1ccc2nc(-c3cccc(Cl)c3)c(-c3ccccc3)nc2c1 [Compound I-209, 2-(3-chlorophenyl)-N-[3-(1H-imidazol-1-yl)propyl]-3-phenylquinoxaline-6-carboxamide] | -7 | 100 to 500 | 74 | – | – |
| O=C(NCCCn1ccnc1)c1ccc2nc(N3CCC(N4CCC(O)CC4)CC3)c(-c3ccccc3)nc2c1 [Compound I-210, 2-(4-hydroxy-1,4′-bipiperidin-1′-yl)-N-[3-(1H-imidazol-1-yl)propyl]-3-phenylquinoxaline-6-carboxamide] | -2 | < 100 | 95 | – | – |
| O=C(NCCCc1ncc[nH]1)c1ccc2nc(Cl)c(-c3ccc(F)cc3)nc2c1 [Compound I-211, 2-Chloro-3-(4-fluorophenyl)-N-[3-(1H-imidazol-2-yl)propyl]quinoxaline-6-carboxamide] | – | 100 to 500 | 79 | > 99 | – |
| O=C(NCCc1ccncc1)c1ccc2nc(-c3ccc(F)cc3)c(-c3ccc(F)cc3)nc2c1 [Compound I-212, 2,3-bis(4-fluorophenyl)-N-[2-(pyridin-4-yl)ethyl]quinoxaline-6-carboxamide] | 101 | < 100 | 95 | – | – |
| O=C(NCCCc1ncc[nH]1)c1ccc2nc(N3CCC(O)CC3)c(-c3ccc(F)cc3)nc2c1 [Compound I-213, 3-(4-fluorophenyl)-2-(4-hydroxypiperidin-1-yl)-N-[3-(1H-imidazol-2-yl)propyl]quinoxaline-6-carboxamide] | – | < 100 | 99 | 2 | – |
| Cc1ccc(-c2nc3ccc(C(=O)NCCCn4ccnc4)cc3nc2-c2ccc(C)cc2)cc1 [Compound I-214, N-[3-(1H-imidazol-1-yl)propyl]-2,3-bis(4-methylphenyl)quinoxaline-6-carboxamide] | 0 | 1000 to 2000 | 40 | – | – |
| Cn1ccc(-c2nc3cc(C(=O)NCCCn4ccnc4)ccc3nc2-c2ccccc2)n1 [Compound I-215, N-[3-(1H-imidazol-1-yl)propyl]-3-(1-methyl-1H-pyrazol-3-yl)-2-phenylquinoxaline-6-carboxamide] | 19 | 2000 to 10000 | 15 | – | – |
| O=C(NCCCc1ncc[nH]1)c1ccc2nc(OC3CCCCC3)c(-c3ccc(Cl)cc3)nc2c1 [Compound I-216, 3-(4-chlorophenyl)-2-(cyclohexyloxy)-N-[3-(1H-imidazol-2-yl)propyl]quinoxaline-6-carboxamide] | – | < 100 | 91 | 3 | – |
| CC(C)(C)OC(=O)NCc1ccccc1-c1nc2cc(C(=O)NCCCn3ccnc3)ccc2nc1-c1ccccc1 [Compound I-217, tert-butyl[2-(7-{[3-(1H-imidazol-1-yl)propyl]carbamoyl}-3-phenylquinoxalin-2-yl)benzyl]carbamate] | 95 | 2000 to 10000 | 26 | – | – |
| COc1cccc(-c2nc3cc(C(=O)NCCCn4ccnc4)ccc3nc2-c2ccccc2)c1 [Compound I-218, N-[3-(1H-imidazol-1-yl)propyl]-3-(3-methoxyphenyl)-2-phenylquinoxaline-6-carboxamide] | 0 | < 100 | 100 | – | – |
| N#Cc1cccc(-c2nc3ccc(C(=O)NCCCn4ccnc4)cc3nc2-c2ccccc2)c1 [Compound I-219, 2-(3-cyanophenyl)-N-[3-(1H-imidazol-1-yl)propyl]-3-phenylquinoxaline-6-carboxamide] | -7 | 100 to 500 | 74 | – | – |

— patent publication US10144742B2 (Millennium Pharmaceuticals, Inc., priority 2014, dated 2018)
